CCCc1nc(C(C)(C)O)c(C(=O)OCC)n1Cc1ccc(-c2ccccc2-c2nnnn2C(c2ccccc2)(c2ccccc2)c2ccccc2)cc1
solubility (mole fraction)
Settings | 278.15 K | 283.15 K | 288.15 K | 293.15 K | 298.15 K | 303.15 K | 308.15 K | 313.15 K | 318.15 K
in DMAc | 0.00501 | 0.00574 | 0.00655 | 0.00756 | 0.00872 | 0.01 | 0.0114 | 0.0129 | 0.0148
in DMF | 0.00117 | 0.00148 | 0.00186 | 0.00229 | 0.0028 | 0.00337 | 0.004 | 0.00471 | 0.00553
in acetone | 0.000617 | 0.000854 | 0.00115 | 0.00154 | 0.00197 | 0.00242 | 0.0029 | 0.0035 | 0.00417
in acetonitrile | 0.00027 | 0.000315 | 0.000373 | 0.00044 | 0.000513 | 0.000597 | 0.000689 | 0.00079 | 0.000901
in cyclohexanone | 0.00729 | 0.00844 | 0.00967 | 0.0112 | 0.0128 | 0.0147 | 0.0166 | 0.0187 | 0.0211
in ethanol | 8.35e-05 | 0.000102 | 0.000124 | 0.000147 | 0.000174 | 0.000206 | 0.000239 | 0.000277 | 0.000318
in ethyl acetate | 0.00177 | 0.0021 | 0.00256 | 0.00308 | 0.00372 | 0.00445 | 0.00523 | 0.00607 | 0.00699
in isobutanol | 0.00012 | 0.000145 | 0.000177 | 0.000216 | 0.000255 | 0.000302 | 0.000352 | 0.000408 | 0.000472
in isopropanol | 5.42e-05 | 6.87e-05 | 8.5e-05 | 0.000102 | 0.000122 | 0.000144 | 0.00017 | 0.000197 | 0.000228
in methanol | 4.18e-05 | 5.35e-05 | 6.64e-05 | 8.11e-05 | 9.59e-05 | 0.000112 | 0.000131 | 0.000152 | 0.000175
in n-butanol | 0.000177 | 0.000211 | 0.000253 | 0.000298 | 0.000348 | 0.000401 | 0.000458 | 0.000521 | 0.000588
in n-propanol | 0.000144 | 0.000175 | 0.000213 | 0.000253 | 0.000298 | 0.000346 | 0.000397 | 0.000454 | 0.000519
in toluene | 0.00257 | 0.0032 | 0.00403 | 0.00503 | 0.00608 | 0.00738 | 0.00882 | 0.0104 | 0.0124

Source: BigSolDB 2.1
